Read-outs that look alike come from different tables or passages of the source. Marks after values point to notes of the source that are not given here.
Key:
MALME-3M = conditions: Melanoma, NCI database, cited from earlier work; for CC50: read-out: LC50 (the source's name)
SK-MEL-5 = conditions: SK-MEL-5, Melanoma, NCI database, cited from earlier work; for CC50: read-out: LC50 (the source's name)
DU-145 = conditions: DU-145, Prostate, NCI database, cited from earlier work; for CC50: read-out: LC50 (the source's name)
HOP-62 = conditions: HOP-62, Non-Small Cell Lung, NCI database, cited from earlier work; for CC50: read-out: LC50 (the source's name)
UACC-257 = conditions: UACC-257, Melanoma, NCI database, cited from earlier work; for CC50: read-out: LC50 (the source's name)
PC-3 = conditions: PC-3, Prostate, NCI database, cited from earlier work; for CC50: read-out: LC50 (the source's name)
IGR-OV1 = conditions: IGR-OV1, Ovarian, NCI database, cited from earlier work; for CC50: read-out: LC50 (the source's name)
ACHN [1] = conditions: Renal, NCI database, cited from earlier work; for CC50: read-out: LC50 (the source's name)
UO-31 = conditions: UO-31, Renal, NCI database, cited from earlier work; for CC50: read-out: LC50 (the source's name)
OVCAR-8 = conditions: OVCAR-8, Ovarian, NCI database, cited from earlier work; for CC50: read-out: LC50 (the source's name)
SK-MEL-2 = conditions: SK-MEL-2, Melanoma, NCI database, cited from earlier work; for CC50: read-out: LC50 (the source's name)
NCI/ADR-RES = conditions: Breast, NCI database, cited from earlier work; for CC50: read-out: LC50 (the source's name)
[2] = system: Heterozygous nude CD-1 male mice; experiment: Intestinal pathological analysis (crypt epithelial cell apoptosis) in treated mice; conditions: multiple doses
Procedure: (§1) Heterozygous nude CD-1 male mice were treated (i.p.) with multiple doses consisting of either one dose daily for three consecutive days (cis-AVTP or trans-AVTG, 21.25 μmol/kg, 6-TG, 8.5 or 21.25 μmol/kg, or vehicle; one cycle), or one dose daily for three consecutive days, repeated again five days later (cis-AVTP, trans-AVTG or 6-TG, 8.5 or 21.25 μmol/kg, or vehicle; two cycles).
(§2) The mice were sacrificed 24 h after the last treatment. Urine was collected for 24 h before initiation of treatment and every 24 h thereafter until the mice were sacrificed. Blood was collected by cardiac puncture and blood cells counted. Sections of liver, kidney, intestines, stomach and sternum were stained with hematoxylin and eosin and subjected to pathological analysis. Bone marrow smears were prepared for assessment of bone marrow cellularity. Liver function was evaluated by measuring alanine aminotransferase-(ALT) and aspartate aminotransferase (AST) activities in plasma. Kidney function was evaluated by measuring blood urea nitrogen in plasma and γ-glutamyltransferase activity and glucose levels in urine.

[3] = system: Heterozygous nude CD-1 male mice; experiment: Liver function (AST, ALT in plasma) and liver histopathology in treated mice
Procedure: as §1, §2

[4] = cited from earlier work
NCI-H23 = conditions: NCI-H23, Non-Small Cell Lung, NCI database, cited from earlier work; for CC50: read-out: LC50 (the source's name)
SNB-75 = conditions: SNB-75, CNS, NCI database, cited from earlier work; for CC50: read-out: LC50 (the source's name)
ACHN [5] = system: ACHN
U251 = conditions: for CC50: read-out: LC50
RPMI-8226 = conditions: for CC50: read-out: LC50
A549/ATCC = conditions: for CC50: read-out: LC50
[6] = Homo sapiens, 48 h, read-out: LC50
[7] = A549/ATCC, Non-Small Cell Lung, 48 h

## Nc1nc2nc[nH]c2c(=S)[nH]1 [6-TG, 6-thioguanine]
MALME-3M
  CC50: > 100 µM
  GI50: 1.34 µM
  TGI: 28.6 µM
SK-MEL-5
  GI50: 3.53 µM
  TGI: 16.4 µM
  CC50: 88.1 µM
DU-145
  GI50: 0.78 µM
  TGI: >100 µM
  CC50: > 100 µM
HOP-62
  GI50: 0.73 µM
  TGI: 28.4 µM
  CC50: > 100 µM
UACC-257
  GI50: 1.98 µM
  TGI: 95.7 µM
  CC50: > 100 µM
PC-3
  GI50: 1.77 µM
  TGI: >100 µM
  CC50: > 100 µM
IGR-OV1
  GI50: 4.79 µM
  TGI: >100 µM
  CC50: > 100 µM
ACHN [1]
  CC50: > 100 µM
  GI50: 1.93 µM
  TGI: >100 µM
UO-31
  GI50: 1.48 µM
  TGI: 32.3 µM
  CC50: > 100 µM
OVCAR-8
  GI50: 0.69 µM
  TGI: 60.0 µM
  CC50: > 100 µM
SK-MEL-2
  GI50: 0.92 µM
  TGI: 10.5 µM
  CC50: > 100 µM
NCI/ADR-RES
  CC50: > 100 µM
  GI50: 0.59 µM
  TGI: 35.6 µM
[2]
  crypt epithelial apoptosis, large intestines: considerable crypt cell apoptosis
  crypt epithelial cell apoptosis, small intestines: extensively
[3]; 8.5 μmol/kg, one cycle
  ALT: 9.2 ± 3.2 SF U/ml
  AST: 43.5 ± 24.8 SF U/ml
[3]; 8.5 μmol/kg, two cycles
  ALT: 10.5 ± 6.6^a SF U/ml
  AST: 37.9 ± 12.2^a SF U/ml
[3]; 21.25 μmol/kg, one cycle
  ALT: 15.0 ± 2.5^b SF U/ml
  AST: 44.4 ± 5.4^c SF U/ml
[3]; 21.25 μmol/kg, two cycles
  ALT: 12.6 ± 4.8^a SF U/ml
  AST: 68.2 ± 54.5^a SF U/ml
[4]
  dose absorbed after oral administration: up to 46%
NCI-H23
  GI50: 1.06 µM
  TGI: 22.9 µM
  CC50: > 100 µM
SNB-75
  GI50: 1.42 µM
  TGI: 41.3 µM
  CC50: > 100 µM

## CC(=O)C=CSc1ncnc2nc[nH]c12 [cis-AVTP, 6-(2-acetylvinylthio) purine]
ACHN [5]; Homo sapiens, 48 h
  GI50: 1.99 µM
ACHN [5]; [6]
  CC50: 7.59 µM
ACHN [5]; Renal, 48 h
  TGI: 3.89 µM
CCRF-CEM; Homo sapiens, 48 h
  GI50: 0.2 µM
CCRF-CEM; [6]
  CC50: > 100 µM
CCRF-CEM; Leukemia, 48 h
  TGI: 2.17 µM
U251; Homo sapiens, U-251, 48 h
  GI50: 2.74 µM
  CC50: 56.3 µM
U251; U251, CNS, 48 h
  TGI: 10.2 µM
SR; Homo sapiens, 48 h
  GI50: 0.17 µM
SR; [6]
  CC50: > 100 µM
SR; Leukemia, 48 h
  TGI: >100 µM
RPMI-8226; Homo sapiens, RPMI-8226, 48 h
  GI50: 0.12 µM
  CC50: > 100 µM
RPMI-8226; RPMI-8226, Leukemia, 48 h
  TGI: 1.67 µM
[2]
  crypt epithelial apoptosis, large intestines: no increase
  crypt epithelial cell apoptosis, small intestines: increased slightly
[3]; 8.5 μmol/kg, two cycles
  ALT: 7.8 ± 4.0^a SF U/ml
  AST: 55.1 ± 37.5^a SF U/ml
[3]; 21.25 μmol/kg, one cycle
  ALT: 2.0 ± 2.0^a,* SF U/ml
  AST: 25.5 ± 4.3^a SF U/ml
[3]; 21.25 μmol/kg, two cycles
  ALT: 16.0 ± 4.3^a,# SF U/ml
  AST: 60.2 ± 30.8^a SF U/ml
A549/ATCC; [7]
  TGI: 24.3 µM
A549/ATCC; Homo sapiens, A549, 48 h
  GI50: 6.94 µM
  CC50: 69.5 µM

## Sc1ncnc2nc[nH]c12 [6-MP, 6-mercaptopurine]
MALME-3M
  CC50: > 100 µM
  GI50: 4.28 µM
  TGI: >100 µM
SK-MEL-5
  GI50: 8.59 µM
  TGI: >100 µM
  CC50: > 100 µM
DU-145
  GI50: 1.73 µM
  TGI: >100 µM
  CC50: > 100 µM
HOP-62
  GI50: 1.69 µM
  TGI: >100 µM
  CC50: > 100 µM
UACC-257
  GI50: 14.2 µM
  TGI: >100 µM
  CC50: > 100 µM
PC-3
  GI50: 3.81 µM
  TGI: >100 µM
  CC50: > 100 µM
IGR-OV1
  GI50: 8.59 µM
  TGI: >100 µM
  CC50: > 100 µM
ACHN [1]
  CC50: > 100 µM
  GI50: 6.3 µM
  TGI: >100 µM
UO-31
  GI50: 6.52 µM
  TGI: >100 µM
  CC50: > 100 µM
OVCAR-8
  GI50: 2.44 µM
  TGI: >100 µM
  CC50: > 100 µM
SK-MEL-2
  GI50: 5.81 µM
  TGI: >100 µM
  CC50: > 100 µM
NCI/ADR-RES
  CC50: > 100 µM
  GI50: 3.18 µM
  TGI: >100 µM
[4]
  dose absorbed after oral administration: ≤ 37%
NCI-H23
  GI50: 3.74 µM
  TGI: >100 µM
  CC50: > 100 µM
SNB-75
  GI50: 7.93 µM
  TGI: >100 µM
  CC50: > 100 µM

## CC(=O)C=CSc1nc(N)nc2nc[nH]c12 [trans-AVTG, 6-(2-acetylvinylthio) guanine]
ACHN [5]; Renal, 48 h
  GI50: 3.63 µM
  TGI: 51.4 µM
ACHN [5]; read-out: LC50, Renal, 48 h
  CC50: > 100 µM
CCRF-CEM; Leukemia, 48 h
  GI50: 0.14 µM
  TGI: 1.83 µM
CCRF-CEM; read-out: LC50, Leukemia, 48 h
  CC50: 54.8 µM
U251; U251, CNS, 48 h
  GI50: 6.55 µM
  TGI: 48.4 µM
  CC50: > 100 µM
SR; Leukemia, 48 h
  GI50: 0.09 µM
  TGI: 10.2 µM
SR; read-out: LC50, Leukemia, 48 h
  CC50: > 100 µM
RPMI-8226; RPMI-8226, Leukemia, 48 h
  GI50: 0.24 µM
  TGI: 3.19 µM
  CC50: > 100 µM
A549/ATCC; [7]
  GI50: 5.75 µM
  TGI: 32.8 µM
  CC50: > 100 µM
